For one data set, the system named is SARS-COV-2. The data set can be described thus: microbe, parasite or virus in culture. It is filed as cell-based. The conditions noted are these: for SI: SARS-COV-2, CC50/EC50; for pEC50: Severe acute respiratory syndrome coronavirus 2.
A short description of a further data set: in vitro. The note with it: human.
Data set [1] is described as follows: physchem. The note with it: pH 7.4, aqueous buffer, kinetic from dmso stock.
The nature of data set [2]: physchem. The conditions noted are these: fassgf or other biorelevant, kinetic from dmso stock.
Data set [3] can be described thus: physchem. The note with it: simulated gastric fluid.
Data set [4] can be described thus: physchem. The note with it: pH 7.4.
A short description of data set [5]: A-B permeability (Caco-2, pH 6.5/7.4). The conditions noted are these: human, A-B, Caco-2, pH 6.5/7.4, test conc. 1.0E−05M. Background: Caco-2 monolayers are a common model of the intestinal barrier.
Data set [6] can be described thus: B-A permeability (Caco-2, pH 6.5/7.4). The note with it: human, test conc. 1.0E−05M.
Data set [7] can be described thus: Mouse pharmacokinetics, blood levels after single oral dose. It is filed as in vivo, female C57BL/6 mice. Here is the method:
The present study aimed at the determination of pharmacokinetic parameters of Example 2 and it's metabolites (NHC, NHC-MP, NHC-DP and NHC-TP) in blood after single dose oral administration of 96.5 μmol/kg to female C57BL/6 mice (body weight 20 to 21 g). Blood samples were obtained from the retrobulbar venous plexus into Li-Heparin tubes (Minivette POCT, […]). The vehicle for preparation of the dose formulations was PBS. The samples were analysed by high resolution LC-MS at Pharmacelsus GmbH, Germany.

The conditions of data set [8]: pH 7.4.
For data set [9] the following is noted: cited from earlier work.
Data set [10] deals with N-terminally truncated recombinant hDHODH enzyme (Homo sapiens, UniProt Q02127). The data set can be described thus: Human DHODH inhibition assay. It is filed as biochemical. The conditions noted are these: pH 8.0, 30° C. Here is the method:
Briefly, the hDHODH concentration was adjusted in a way that an average slope of approximately 0.2 AU/min served as the positive control (e.g. without inhibitor). […] The reaction was started by adding dihydroorotate and measuring the absorption at 600 nm for 2 min. For the determination of the IC50 values, each data point was recorded in triplicate. For the determination of the inhibitory constant Ki, the KM values for DHO and decylubichinon were determined. Afterwards, the compounds were diluted in a dilution series depending on their IC50 values in DMSO. The dilution was: 0 ×IC50 , 1/4×IC50 , 1/2×IC50 , 1×IC50 , 2×IC50 , 4×IC50 . […] Each data point was recorded in duplicate.

For data set [11] the following is noted: pH 7.4. This is another data set of the same source.
The next data set can be described thus: Microsomal stability. It is filed as in vitro ADME. The conditions noted are these: compared to non-deuterated matched pair C26.
A further data set relates to RSV A2. The data set can be described thus: RSV virus titers by endpoint titration (CCID50), mono and combination. It is filed as cell-based. The conditions noted are these: MA-104 cells, virus control 4.0.
In the next data set the test system is HRV-14. As to the kind of experiment: HRV-14 virus titers by endpoint titration (CCID50), mono and combination. The format is cell-based. The conditions noted are these: Hela cells, virus control 6.7.
Setting [12] is: SARS-COV-2 viral replication (YFP), read-out: EC50.
Where [13] appears, read: Caco-2, pH 6.5, Percent Recovery 1st.
Where [14] appears, read: Caco-2, pH 6.5, Percent Recovery 2nd.
Where [15] appears, read: Caco-2, pH 6.5, Percent Recovery Mean.
Setting [16] is: Caco-2, pH 6.5, Permeability 1st.
[17] abbreviates: Caco-2, pH 6.5, Permeability 2nd.
[18] abbreviates: Caco-2, pH 6.5, Permeability Mean.
[19] abbreviates: metabolite in blood of mice after single oral 96.5 μmol/kg Example 2.

pEC50, pKi: −log10 of the molar value. ≈ marks a conversion by molar mass, not a printed value. Where a name gives a salt, the structure may show the parent alone. Read-outs that look alike come from different tables or passages of the source.

Sequence of N-terminally truncated recombinant hDHODH enzyme (Q02127 whole entry, looked up, the tested form may be a part): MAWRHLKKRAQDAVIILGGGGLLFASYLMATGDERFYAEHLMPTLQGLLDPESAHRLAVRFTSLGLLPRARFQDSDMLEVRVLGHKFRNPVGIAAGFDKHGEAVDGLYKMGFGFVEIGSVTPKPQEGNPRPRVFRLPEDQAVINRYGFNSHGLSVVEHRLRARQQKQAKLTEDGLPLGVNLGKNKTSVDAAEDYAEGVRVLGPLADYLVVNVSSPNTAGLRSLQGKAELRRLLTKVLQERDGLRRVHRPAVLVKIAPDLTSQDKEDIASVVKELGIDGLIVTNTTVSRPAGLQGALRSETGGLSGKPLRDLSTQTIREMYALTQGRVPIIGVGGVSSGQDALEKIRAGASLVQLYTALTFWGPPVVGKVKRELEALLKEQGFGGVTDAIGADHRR

In the case of `C[N+](C)(C)CCOP(=O)([O-])OP(=O)([O-])OC[C@H]1O[C@@H](n2ccc(N)nc2=O)[C@H](O)[C@@H]1O.[Na+]` [Example C1, Citicoline sodium, reference compound], the SI entry with SARS-COV-2 is “inactive”. The pEC50 (usually the negative decadic logarithm of the EC50, by convention in mol/L) with SARS-COV-2 (setting [12]) is less than 4.30. Besides, the CC50 in the data set “in vitro” is more than 100 µM.

The compound `[2H]C([2H])([2H])Oc1cccc(-c2cc(F)c(NC(=O)C3=C(C(=O)O)CCC3)c(F)c2)c1` [Example 51, 2-((3,5-Difluoro-3′-(methoxy-d3)-[1,1′-biphenyl]-4-yl)carbamoyl) cyclopent-1-ene-1-carboxylic acid] registered an SI in the data set with SARS-COV-2 of more than 5. In the data set with SARS-COV-2 (setting [12]), the negative logarithm of the EC50 (pEC50) is more than 4.70. In the data set “in vitro”, the CC50 was more than 100 µM.

`CC(C)C(=O)OC[C@H]1O[C@@H](n2ccc(NO)nc2=O)[C@H](O)[C@@H]1O` [molnupiravir, reference compound]: the solubility (as a rule, how much of the substance goes into solution per volume) was 247 µM (≈ 81.3 µg/mL) in “physchem [1]” (Solubility 1st); 291 µM (≈ 95.7 µg/mL) in “physchem [1]” (Solubility 2nd); more than 200 µM in the data set “physchem [1]” (Solubility Mean); 302 µM (≈ 99.3 µg/mL) in the data set “physchem [2]” (Solubility 1st); 329 µM (≈ 108 µg/mL) in “physchem [2]” (Solubility 2nd); more than 200 µM in the data set “physchem [2]” (Solubility Mean). Moreover, the figures for the solubility in “physchem [3]” (Solubility 1st), in “physchem [3]” (Solubility 2nd) and in the data set “physchem [3]” (Solubility Mean) were 258 µM (≈ 84.9 µg/mL), 293 µM (≈ 96.4 µg/mL) and more than 200 µM, respectively. For the same compound, in the data set “physchem [4]”, the pH-dependent lipophilicity (logD) – broadly, lipophilicity at a set pH, counting ionised and neutral species – came to 0.39. The recovery at 10 µM in data set [5] (setting [13]) was 70%; in data set [5] (setting [14]), 71%; in data set [5] (setting [15]), 71%; in data set [6] (setting [13]), 90%; in data set [6] (setting [14]), 89%; in [6] (setting [15]), 89%. The apparent permeability coefficient (Papp) (usually the rate of passage across a membrane or cell layer, normalised by area and donor concentration) at 10 µM in data set [5] (setting [16]) came out at 0.19 ×10⁻⁶ cm/s; in data set [5] (setting [17]) it was 0.13 ×10⁻⁶ cm/s; in [5] (setting [18]), 0.2 ×10⁻⁶ cm/s; in [6] (setting [16]), 0.26 ×10⁻⁶ cm/s; in [6] (setting [17]) it was 0.27 ×10⁻⁶ cm/s; in data set [6] (setting [18]), 0.3 ×10⁻⁶ cm/s.

As to `O=c1nc(NO)ccn1[C@@H]1O[C@H](COP(=O)(O)O)[C@@H](O)[C@H]1O` [NHC-MP], in data set [7] (setting [19]), the “AUC (0-inf)” value was determined as 1.624 µM·h, the elimination half-life was found to be 7.3 h, the maximal blood concentration is given as 274+41.4 nM and the “time of maximal blood concentration post dose” value was found to be 30 min.

In the case of `O=c1nc(NO)ccn1[C@@H]1O[C@H](COP(=O)(O)OP(=O)(O)OP(=O)(O)O)[C@@H](O)[C@H]1O` [NHC-TP, β-D-N^4-hydroxycytidine 5′-triphosphate, reference compound], in data set [7] (setting [19]), the maximal blood concentration was 611+100 nM and the “time of maximal blood concentration post dose” value was found to be 240 min.

`O=c1nc(NO)ccn1[C@@H]1O[C@H](COP(=O)(O)OP(=O)(O)O)[C@@H](O)[C@H]1O` [NHC-DP, β-D-N^4-hydroxycytidine 5′-diphosphate]: the logD in data set [8] was found to be 0.12.

As to `C[N+](C)(C)CCOP(=O)(O)OP(=O)([O-])OC[C@H]1O[C@@H](n2ccc(N)nc2=O)[C@H](O)[C@@H]1O` [Citicoline, cytidine 5′-diphosphocholine], in data set [9], the oral bioavailability result is on record as “more than 90%”.

Take `COc1cccc(C2=CCC=C(NC(=O)C3=C(C(=O)O)CCC3)C(F)=C2)c1` [Example C26]: the negative-log Ki (pKi) (commonly the negative decadic logarithm of the Ki, by convention in mol/L) in data set [10] (substrate DHO varied, read-out: Ki (DHO)) was 6.23; in data set [10] (substrate decylubichinon varied, read-out: Ki (decylubichinon)), 6.61.

Regarding `C[N+](C)(C)CCOP(=O)(O)OP(=O)([O-])OC[C@H]1O[C@@H](n2ccc(NO)nc2=O)[C@H](O)[C@@H]1O` [Example 2, 2-(((((((2R,3S,4R,5R)-3,4-Dihydroxy-5-(4-(hydroxyamino)-2-oxopyrimidin-1 (2H)-yl)tetrahydrofuran-2-yl)methoxy) (hydroxy)phosphoryl)oxy)oxidophosphoryl)oxy)-N,N,N-trimethylethan-1-aminium triethylammonium salt], the “blood concentration of test item (lower limit of quantification)” value in data set [7] (mice, single oral 96.5 μmol/kg Example 2, not found in all blood samples) is on record as less than 14.4 nM.

Take `O=c1nc(NO)ccn1[C@@H]1O[C@H](CO)[C@@H](O)[C@H]1O` [NHC, β-D-N^4-hydroxycytidine]: in data set [11], the “Solubility 1st” value turned out to be 349.99 µM (≈ 90.7 µg/mL), the “Solubility 2nd” value was 362.05 µM (≈ 93.8 µg/mL) and the “Solubility Mean” value was more than 200 µM. For the same compound, the logD in data set [8] is 1.12.

`[2H]C([2H])([2H])Oc1cccc(-c2ccc(NC(=O)C3=C(C(=O)O)CCC3)c(F)c2)c1` [Example 50, 2-((3-Fluoro-3′-(methoxy-d3)-[1,1′-biphenyl]-4-yl)carbamoyl) cyclopent-1-ene-1-carboxylic acid]: the microsomal stability result in the data set “Microsomal stability” is “improved”. In the data set with SARS-COV-2, the pEC50 is more than 5.00. In addition, the “RSV Virus Titers” value with RSV A2 (Conc. 0.0079 μM) is 3.7 CCID50/mL (Log10); in the data set on RSV A2 (Conc. 0.025 μM), 3.7 CCID50/mL (Log10); in the data set on RSV A2 (Conc. 0.079 μM) it was 3.5 CCID50/mL (Log10); in the data set on RSV A2 (Conc. 0.25 μM), 3.5 CCID50/mL (Log10); in the data set on RSV A2 (Conc. 0.79 μM), 3.5 CCID50/mL (Log10); in the data set on RSV A2 (Conc. 2.5 μM), 2.0 CCID50/mL (Log10). Further, the figures for the “RSV Virus Titers” value in the data set on RSV A2 (Conc. 7.9 μM) and in the data set on RSV A2 (Conc. 25 μM) were 2.0 CCID50/mL (Log10) and <0.7 CCID50/mL (Log10), respectively. Also, the “HRV-14 Virus Titers” value in the data set with HRV-14 (Conc. 0.0079 μM) is 6.7 CCID50/mL (Log10); with HRV-14 (Conc. 0.025 μM), 6.7 CCID50/mL (Log10); in the data set with HRV-14 (Conc. 0.079 μM), 7.0 CCID50/mL (Log10); in the data set with HRV-14 (Conc. 0.25 μM), 6.7 CCID50/mL (Log10); with HRV-14 (Conc. 0.79 μM) it was 6.7 CCID50/mL (Log10); in the data set on HRV-14 (Conc. 2.5 μM) it was 7.0 CCID50/mL (Log10). Moreover, the “HRV-14 Virus Titers” value with HRV-14 (Conc. 7.9 μM) is 4.0 CCID50/mL (Log10); with HRV-14 (Conc. 25 μM), 3.5 CCID50/mL (Log10). The compound further returned a CC50 in “in vitro” of more than 100 µM.

(Values after patent US20250032527A1, “MEDICAL USE OF N4-HYDROXY CITICOLINE COMPOUNDS” (IMMUNIC AG, priority 2021, published 2025).)
